# Experimental data from patent US9278068B2, “Vesicle compositions” (Sensulin LLC, priority 2011, dated 2016).
# Key:
# HeLa cells = assay: MTT assay for cytotoxicity; settings: 2 h
# Description: The cytotoxicity of the boronic acid derivatives from Table 1 was studied by MTT assay. 150,000 HeLa cells were plated in 96 well plates on the night before the experiments. On the day of experiments, the cells were treated with the boronic acid derivatives at three different concentrations (40 nM, 80 nM, and 160 nM) for 2 h. At the end of the incubation, MTT assays (In-Vitro toxicology MTT based assay kit, Sigma Aldrich, MO) were performed according to the manufacturer's protocol.
# NF-κB = NF-κB assay for inflammation (nuclear translocation of NF-κB, immunocytochemistry, PCC); settings: HeLa cells, 2 h, PCC between nuclear and cytoplasmic fraction of NF-κB
# Description: 15,000 HeLa cells were plated in 96 well plates the night before the experiments. On the day of the experiments, the cells were treated with the boronic acids (Table 1, below) at three different concentrations (40 nM, 80 nM, and 160 nM) for 2 h. At the end of the incubation, cells were washed with phosphate buffered saline (PBS) and were fixed in 4% paraformaldehyde for 15 min and permeablized with 0.01% Triton X-100 in PBS for 10 min. The cells were washed with PBS three times. Nonspecific sites were blocked with 5% bovine serum albumin (BSA) in PBS and incubated with the Anti-NF-κB for 1 h, followed by incubation with fluorescein isothiocyanate (FITC)-labeled secondary antibody. After washing the cells at the end of the incubation, the cells were treated with 4′,6-diamidino-2-phenylindole (DAPI) for 1 min and kept at 4° C. until further analysis. Images of the cells were acquired with a Beckman-Coulter 100 automated high-throughput microscope system and analyzed using Cytseer software (Vala Sciences, CA). The co-localization of NF-κB was quantified by measuring the PCC between the nuclear and cytoplasmic fraction of the NF-κB molecule. The PCC is a measure of the overlap between the pixel intensities of the nuclear and NF-κB images of the same cell. The PCC values can range from −1 to 1. […] A negative correlation (negative PCC value) indicates an absence of nuclear translocation.
SMILES,Inflammation (PCC) 40 nM (NF-κB),Inflammation (PCC) 80 nM (NF-κB),Inflammation (PCC) 160 nM (NF-κB),MTT (% Cell Survival) 40 nM (HeLa cells) [%],MTT (% Cell Survival) 80 nM (HeLa cells) [%],MTT (% Cell Survival) 160 nM (HeLa cells) [%]
OB(O)c1cc2ccccc2nc1Cl [2-chloro-3-quinolineboronic acid],0.08644,0.05095,0.193,30.1105,44.7882,32.43
OB(O)c1ccccc1Cl [2-chlorophenylboronic acid],−0.0957,.00949,0.09948,86.3068,60.0002,45.45
OB(O)c1cc2cc(Br)ccc2s1 [5-bromobenzo-B-thophene-2boronic acid],−0.0244,−0.01,0.1265,71.83,81.40,90.42
CCOc1ccc(B(O)O)cn1 [2-ethoxy-5-pyridine-boronic acid],−0.1416,−0.0136,0.1498,81.40,69.58,33.80
OB(O)c1ccccc1O [2-hydroxyphenylboronic acid],−0.0198,−0.0878,0.08884,70.3314,55.8039,53.64
OB(O)c1ccc(Br)nc1 [2-bromopyridine-5-boronic acid],0.00604,0.078,0.1446,95.1013,120.589,35.78
OB(O)c1cccs1 [2-thienylboronic acid],−0.121,−0.0343,0,53.48,75.76,61.19

# Second part, led by results:
Inflammation (PCC) 40 nM (NF-κB),Inflammation (PCC) 80 nM (NF-κB),Inflammation (PCC) 160 nM (NF-κB),SMILES,MTT (% Cell Survival) 40 nM (HeLa cells) [%],MTT (% Cell Survival) 80 nM (HeLa cells) [%],MTT (% Cell Survival) 160 nM (HeLa cells) [%]
−0.1318,−0.0051,0.213,CN(C)c1ccc(B(O)O)cc1 [4-(dimethylamino)phenylboronic acid],78.59,71.75,51.04
−0.0169,0.02474,0.2936,COc1ccc(F)cc1B(O)O [5-fluoro-2-methoxyphenylboronic acid],84.22,84.22,54.92
0.0154,0.0762,0.2584,OB(O)c1c(F)c(F)c(F)c(F)c1F [pentafluorophenylboronic acid],65.63,60.00,50.98
0.00184,0.1802,0.129,CCS(=O)(=O)c1ccc(B(O)O)cc1 [4-ethylsulfonyl-phenylboronic acid],67.61,66.47,37.46
−0.0551,0.01168,0.1634,OB(O)C1=CCCC1 [cyclopenten-1-yl boronic acid],99.21,79.90,68.16
0.00989,−0.0122,0.1132,O=Cc1ccc(B(O)O)o1 [5-formyl-2-furanboronic acid],77.18,94.08,50.14
